Data taken from the supplement of paper PMC10307832.

What was measured:
Assay in all cases: relative viability (nuclei count vs DMSO), 5 days (fraction); higher = more cells survive
[1] = compound: Cc1ccc(C(=O)Nc2ccc(CN3CCN(C)CC3)c(C(F)(F)F)c2)cc1C#Cc1cnc2cccnn12 [Ponatinib]
In short: (§1)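 Viability was read as treated-well nuclei divided by vehicle-well nuclei, using the median across plates. Lung cancer cell lines in 1536-well plates were kept overnight at 37 °C, pinned with five √10-spaced library-drug doses, and after 5 days were Hoechst-stained, imaged at 4× and counted in MetaXpress. Plates passed only with control CV below 25% and at least one doubling.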

[2] = compound: Cc1ccc(Nc2nccc(N(C)c3ccc4c(C)n(C)nc4c3)n2)cc1S(N)(=O)=O [Pazopanib]
In short: as §1

[3] = compound: Cc1ccc(C(=O)Nc2ccc(CN3CCN(C)CC3)c(C(F)(F)F)c2)cc1C#Cc1cnc2cccnn12 [Ponatinib] + CC1(C)CCC(c2ccc(Cl)cc2)=C(CN2CCN(c3ccc(C(=O)NS(=O)(=O)c4ccc(N[C@H](CCN5CCOCC5)CSc5ccccc5)c(S(=O)(=O)C(F)(F)F)c4)cc3)CC2)C1 [Navitoclax] (partner 0.5 µM)
In short: (§2)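 Lung cancer cell lines were seeded in 1536-well plates and dosed by pin tool the next day, with either a single drug or a fixed anchor-drug dose combined with five library-drug doses (not always all listed) spaced in √10 steps. Five days later, one step fixed the cells and stained their nuclei (final 0.05% Triton X-100, 1% formaldehyde, 1 ug/ml Hoechst), and nuclei were counted on 4× images. Relative viability is the nuclei count in treated wells divided by the count in vehicle wells, and each value is the median of duplicate plates.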

[4] = compound: Cc1ccc(Nc2nccc(N(C)c3ccc4c(C)n(C)nc4c3)n2)cc1S(N)(=O)=O [Pazopanib] + Cc1cc(Nc2cc(N3CCN(C)CC3)nc(Sc3ccc(NC(=O)C4CC4)cc3)n2)n[nH]1 [Tozasertib] (partner 0.1 µM)
In short: as §2

Q: Which relative viability ([1]; 0.002 µM) does the source give for UMC-11 here?
A: 0.914

Q: And the relative viability ([1]; 0.006325 µM)?
A: 0.945

Q: What about the relative viability ([1]; 0.06325 µM) of the same cell line?
A: 1.07

Q: And the relative viability ([1]; 0.2 µM)?
A: 0.99

Q: And the relative viability ([2]; 0.01 µM)?
A: 0.828

Q: And the relative viability ([2]; 0.03162 µM)?
A: 1.01

Q: And the relative viability ([2]; 0.1 µM)?
A: 1.01

Q: And the relative viability ([2]; 0.3162 µM)?
A: 1.03

Q: And the relative viability ([2]; 1 µM)?
A: 1.11

Q: And the relative viability ([3]; first compound 0.002 µM)?
A: 0.311

Q: And the relative viability ([3]; first compound 0.006325 µM)?
A: 0.354

Q: What about the relative viability ([3]; first compound 0.06325 µM) of the same cell line?
A: 0.38

Q: And the relative viability ([3]; first compound 0.2 µM)?
A: 0.345

Q: What about the relative viability ([4]; first compound 0.01 µM) of the same cell line?
A: 0.196

Q: And the relative viability ([4]; first compound 0.03162 µM)?
A: 0.19

Q: And the relative viability ([4]; first compound 0.1 µM)?
A: 0.208

Q: What about the relative viability ([4]; first compound 0.3162 µM) of the same cell line?
A: 0.206

Q: And the relative viability ([4]; first compound 1 µM)?
A: 0.211
